Patent US20100150948A1, “MATERIALS AND METHODS FOR IMPROVED IMMUNOGLYCOPROTEINS” (TRUBION PHARMACEUTICALS, INC., priority 2006, published 2010)

How the values were obtained:
CD37 = assay: Binding of TRU-016 to CD37 expressing Daudi cells; parameters: species or system human; conditions: CS 25-800 μM in culture
Experimental: The cells are then incubated with a FITC-conjugated goat anti-human IgG Fc specific antibody (Caltag H 10501). This antibody will bind to the Fc region of the human IgG chain of TRU-016 bound to the cells. The antibody is diluted 1:50 in FACS buffer and 100 μL is added to each well. The plate is incubated at 4° C. in the dark for 45 minutes. Any unbound FITC-labeled antibody is removed by adding 100 μL of FACS buffer to each well, centrifuging at 250×g for 3 minutes at 15° C. followed by removal of supernatant. This is followed by a second wash with 200 μL/well FACS buffer. The cells are resuspended with 200 μL/well 2% paraformaldehyde and stored at 4° C. overnight. Each sample's bound fluorescence is measured on a BD FACSCalibur flow cytometry system and analyzed using Cell Quest Pro software (Becton Dickinson, ver 5.2). The GeoMean fluorescence intensity for each sample is plotted relative to the TRU-016 concentration. A dose response curve is generated and fit to a 4-parameter logistic (4-PL) curve using the SoftMax Pro software (Molecular Devices, ver 5.0.1). Titrations of TRU-016 are utilized to create a dose response curve of the untreated control and CS treated samples for comparison.

CD37 and FcγRIIIa (CD16) = assay: Simultaneous binding of TRU-016 to CD37 and FcγRIIIa (CD16) on Daudi cells; parameters: species or system human; conditions: CS 0-800 μM in culture; response up to 400 μM, at which point the binding appears to level off
Experimental: TRU-016 produced as described in Example 8 was tested in the following assay, which simultaneously evaluates the ability of the TRU-016 binding domain to bind to a CD37 expressing target cell and the ability of the Fc portion of the TRU-016 SMIP to bind a fusion protein of human CD16 and murine IgG Fc.
The target cell utilized is the Daudi (ATCC CRL-213) cell line. Daudi cells are a human B-lymphoblastoid cell line derived from a Burkitt's lymphoma and express high levels of CD37. The custom soluble CD16:MuIgGFc fusion protein is human CD16 (low affinity polymorphism) linked to a murine IgG Fc.
The appropriate number of Daudi cells (350,000/well times the number of wells) is aliquoted and centrifuged at 250×g for 5 minutes at 15° C. The supernatant is removed. One percent cold paraformaldehyde is prepared by diluting the 4% stock from USB (USB US19943) 1:4 with FACS Buffer. FACS Buffer is prepared by adding 2% FBS (Gibco) to Dulbecco's PBS (Invitrogen) (v/v) and sterile filtering with a 0.22 μm filter. FACS Buffer is stored and used at 4° C. […]
Each sample's bound fluorescence is measured on a BD FACSCalibur flow cytometry system and analyzed with Cell Quest Pro software (Becton Dickinson, ver 5.2). The GeoMean fluorescence intensity for each sample is plotted relative to the TRU-016 concentration. […]

Ramos B cells = assay: CDC activity, propidium iodide flow cytometry with human serum; type: cell-based; conditions: TRU-016 from CHO cells cultured with 200 μM DMJ, 10 μM kifenunsine or 200 μM castanospermine
Experimental: To determine the CDC activity of TRU-016 purified protein produced according to Example 2, Ramos B cells were suspended in Iscoves (Gibco/Invitrogen, Grand Island, N.Y.) at 5×10^5 cells/well in 75 μl. TRU-016 (75 μl) were added to the cells at twice the concentrations indicated. Binding reactions were allowed to proceed for 45 minutes prior to centrifugation and washing in serum-free Iscoves. Cells were resuspended in Iscoves with human serum (containing complement) at various concentrations. The cells were incubated 60 minutes at 37° C. Cells were washed by centrifugation and resuspended in staining media with 0.5 μg/ml propidium iodide. Samples were incubated 15 minutes at room temperature in the dark prior to analysis by flow cytometry using a FACsCalibur and CellQuest software (Becton Dickinson).

Molecule	dose response binding curves of TRU-016 to CD37 expressing cells, compared with untreated TRU-016 sample (CD37)	simultaneous binding of TRU-016 to CD37 and CD16 (GeoMean fluorescence, D-parameter) (CD37 and FcγRIIIa (CD16))	CDC compared with protein produced by untreated CHO cells (Ramos B cells)
O[C@H]1[C@H](O)[C@@H](O)CN2CC[C@H](O)[C@H]12 [castanospermine]	did not alter	dose-dependent binding response	–
TRU-016: recombinant single chain protein (SMIP) that binds CD37; G28-1 binding domain, modified hinge, human IgG1 CH2 and CH3; SEQ ID NO: 2	–	–	similar
